A word on the IC50: it is the midpoint of a concentration-inhibition curve.

The values below come from PMC9457593, “Design, Synthesis, and Evaluation of New Mesenchymal–Epithelial Transition Factor (c-Met) Kinase Inhibitors with Dual Chiral Centers” (Molecules, 2022).

Assay [1] deals with MHCC97H cells. Briefly: MTT antiproliferative assay. Format: cell-based, human. An excerpt: On the basis of our former study, compounds 12a-b were designed and first screened for their antiproliferative activity against the c-Met-driven human hepatocarcinoma cells (MHCC97H), using a standard MTT assay. Tepotinib was used as a positive control.
(Tetrazolium assays rely on reduction of a dye to a coloured formazan, in cell work by metabolically active cells.)

For assay [2], the system named is MHCC97H cells. The arrangement: method as in PMID 29393886. Particulars: compounds bearing a single chiral center, from our previous work; read-out: MHCC97H Cell IC50; cited from earlier work.
The target of the next assay is T1, c-Met kinase (Homo sapiens, UniProt P08581).
T1 construct: purchased Carna Bioscience 08-151
T1 sequence (P08581 956-1390 limits assumed): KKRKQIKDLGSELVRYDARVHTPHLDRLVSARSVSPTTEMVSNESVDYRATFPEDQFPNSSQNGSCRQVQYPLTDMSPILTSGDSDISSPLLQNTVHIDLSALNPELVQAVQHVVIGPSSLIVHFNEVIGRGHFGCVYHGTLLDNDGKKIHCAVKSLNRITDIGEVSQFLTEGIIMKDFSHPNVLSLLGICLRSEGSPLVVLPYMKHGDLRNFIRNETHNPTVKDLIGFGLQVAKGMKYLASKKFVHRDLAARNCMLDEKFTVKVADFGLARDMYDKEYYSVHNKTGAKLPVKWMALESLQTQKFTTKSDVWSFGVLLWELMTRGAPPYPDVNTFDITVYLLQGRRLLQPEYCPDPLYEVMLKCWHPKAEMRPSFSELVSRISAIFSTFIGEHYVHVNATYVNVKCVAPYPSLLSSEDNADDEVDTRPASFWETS
Briefly: c-Met kinase inhibition assay (Mobility Shifting Assay). The class given is biochemical. Particulars: mean ± SD of three independent experiments. The procedure: The kinase inhibition assay was carried out according to the principle of MSA (Mobility Shifting Assay) detection. […] Using triple dilution method, 10 gradient concentration groups were received. Varying concentrations of compounds were transported in 384-well plates, and 100% DMSO was set as negative control. After adding kinase buffer, the 384-well plates were centrifuged and vortexed, followed by 10 min of incubation. […] Finally, adding stop solution ended kinase reaction, and the conversion% was detected by a microplate reader (Caliper EZ Reader II, Perkin Elmer, Waltham, Massachusetts, […]). The statistics were analyzed by GraphPad Prism 8, using log (inhibitor) vs. response–variable slope to fit the dose–effect curve.

For assay [3], the system named is LO2 (human normal liver cells). Nature of the assay: Toxicity towards normal cells (LO2). Particulars: for IC50: Homo sapiens, read-out: IC50 on LO2.
For assay [4], the system named is MHCC97H cells. Nature of the assay: Wound healing (cell scratch) assay. Format: cell-based, human. As to conditions: 1, 2, and 3 nM; 0, 6, 12, and 24 h; vs vehicle control. As for the experimental part:
MHCC97H cells were seeded in a 6-well plate and cultured for 24 h; subsequently, the confluent monolayer cells were scratched with a 10 μL pipette tip. After that, the wound was washed with PBS thrice to remove the non-adherent cell debris. In addition, each petri dish had media containing (R, S)-12a in gradient concentrations (1, 2, and 3 nM) added. At 0, 6, 12, and 24 h, changes of cell scratch in area were photographed by phase contrast microscope and finally measured and analyzed by Image J.

The test system of assay [5] is HaCat (human immortalized keratinocytes). Nature of the assay: Toxicity towards normal cells (HaCat). Particulars: for IC50: Homo sapiens, HaCaT, read-out: IC50 on HaCat.
Another assay deals with AKT. Briefly: Immunofluorescence staining and Western blotting of AKT and p-AKT in MHCC97H cells. The class given is cell-based, human. As for the experimental part: (§1) MHCC97H cells were seeded into confocal dishes and then treated with vehicle control (1‰ DMSO) and compound (R, S)-12a (2.5 nM). Cells were washed thrice with PBS, fixed with 4% paraformaldehyde for 15 min, and punched with 0.2% triton X100 and then blocked with 500 μL of blocking buffer at room temperature for 1 h. Cells were incubated with a primary monoclonal antibody (c-Met, p-c-Met, AKT, and p-AKT) at 4 °C for 12 h and then washed with PBS thrice, followed by incubation with the fluorescence secondary antibody (Alexa Fluor 488-labeled Goat Anti-Mouse IgG (H + L)-A0428) and labeling of nuclei by Hoechst33342 (MA0126, Meilunbio, Dalian, Liaoning, China). The cells were finally visualized by a confocal microscope (Carl Zessi Microscopy LSM 880, Oberkochen, Germany). The average fluorescence intensity of FITC channel was analyzed by Image J, and the illustration was drafted by GraphPad Prism8.
(§2) MHCC97H cells were then homogenized with lysis buffer. The protein concentrations were detected using a BCA Protein Assay Kit (Pierce BCA Protein Assay Kit 23227, Thermo, Waltham, MA, USA), and their extracts were reconstituted within loading buffer (Beyotime, Shanghai, China) and inactivated for 5 min at 100 °C. Subsequently, proteins (20 μg) were fractionated by 10% SDS-PAGE and transferred to PVDF membranes. Then, PVDF membranes were blocked in 10% skimmed milk and incubated with the appropriate dilution of primary antibodies, including c-Met (Abcam, Cambridge, UK), p-c-Met (Abcam), AKT (Cell Signaling Technology), p-AKT (Cell Signaling Technology), and GAPDH (Cell Signaling Technology, […], MA, USA). The above primary antibodies were then reacted with HRP-conjugated secondary antibody, and immunoreactive bands were visualized by an ECL Detection Reagent (36208ES60, Yeasen, Shanghai, China) and were estimated through densitometry with a chemiluminescence imaging system (Tanon, Shanghai, China). Intensities of the blots were quantified with Image J and analyzed by GraphPad Prism 8.
(In general: In western blotting, separated proteins are transferred to a membrane and probed.)

The next assay concerns c-Met. Briefly: Immunofluorescence staining and Western blotting of c-Met and p-c-Met in MHCC97H cells. The class given is cell-based, human. The procedure:
as §1, §2

A further assay deals with MHCC-97H tumor cells. Briefly: Tumor cell morphology. The class given is cell-based, human. Particulars: 10 and 50 nM. The procedure: Co-incubation with compound (R, S)-12a (1, 10, and 50 nM) led to a significant reduction in […] cell viability. Red arrowheads indicated distinct morphological changes, such as intracytoplasmic particles increasing, the cell shape change, and loss of adherent property. […] Aggregation, lysis, and cell debris also occurred.

In assay [6] the test system is MHCC97H cells. Nature of the assay: Annexin V-FITC/PI apoptosis analysis (flow cytometry). Format: cell-based, human. Particulars: 48 h. The procedure:
MHCC97H cells were incubated with varying concentrations of compound (R, S)-12a or diluent (1‰ DMSO, as a negative control) for 48 h. The cells were harvested and washed with PBS twice. Then, 500 μL of binding buffer suspended cells were added. The cells were stained with 5 μL of Annexin V-FITC and 10 μL of PI (KGA105, KeyGEN, BioTECH, Nanjing, Jiangsu, China). Then, the cells were incubated at room temperature for 15 min without light exposure. Apoptosis was analyzed using a CytoFLXE flow cytometer (BECKMAN COLTER, Brea, CA, USA).

In assay [7] the test system is MHCC97H cells. Briefly: Hoechst 33342 staining for apoptosis morphology. Format: cell-based, human. As to conditions: 1, 5, and 10 nM, 48 h, vs vehicle control. The source says:
Tumor cell apoptosis is an important stage in the effective treatment of cancer. To evaluate the capacity of compound (R, S)-12a to induce apoptosis in human cancer cell lines, we used Hoechst 33342 staining to investigate the effect of compound (R, S)-12a on MHCC97H cells. Hoechst 33342 staining was used to examine apoptosis through morphological observation.

The subject of assay [8] is MHCC97H cells. Nature of the assay: Cell cycle analysis (PI, flow cytometry). Format: cell-based, human. As to conditions: 10 nM, 48 h. The procedure: MHCC97H cells were incubated with varying concentrations of compound (R, S)-12a or 1‰ DMSO for 48 h. The cells were collected by centrifugation, washed with PBS, and fixed in 70% ice-cold ethanol at 4 °C for 12 h. After the removal of ethanol, each sample was re-suspended in 500 μL of staining buffer containing 50 μL of RNase A and 450 μL of propidium iodide (KGA511, KeyGEN, BioTECH, Nanjing, Jiangsu, China) and incubated at room temperature, avoiding light exposure for 30 min. The DNA content of the cells was measured using a CytoFLXE flow cytometer (BECKMAN COLTER, Brea, CA, USA).
(In general: A flow cytometer gives signals particle by particle.)

[9] abbreviates: MTT, 48 h, mean ± SD of three independent experiments, read-out: MHCC97H Cell IC50.
Setting [10] is: immunofluorescence, 2.5 nM, 48 h.

“And” between values parts separate entries of the source, which are not always exact repeats. Equal entries are not always repeated. Where two headings read alike, the source gives them in different places.

“(R,S)-3-(1-(1-(3-(5-(1-((1-Methyl-1,2,3,6-tetrahydropyridin-4-yl)oxy)ethyl)pyrimidin-2-yl)phenyl)ethyl)-6-oxo-1,6-dihydropyridazin-3-yl)benzonitrile [(R, S)-12b]”: in the assay with MHCC97H cells [1] (setting [9]), the half-inhibitory concentration (IC50) is 9 ± 5 nM.

As for “(S,S)-3-(1-(1-(3-(5-(1-((1-Methyl-1,2,3,6-tetrahydropyridin-4-yl)oxy)ethyl)pyrimidin-2-yl)phenyl)ethyl)-6-oxo-1,6-dihydropyridazin-3-yl)benzonitrile [(S, S)-12b]”, the IC50 in the assay with MHCC97H cells [1] (setting [9]) is 136 ± 52 nM.

In the case of `C[C@H](c1cccc(-c2ncc(OCC3CCN(C)CC3)cn2)c1)n1nc(-c2cccc(C#N)c2)ccc1=O` [(R)-5b], in the assay on MHCC97H cells [2], the IC50 is 3.7 ± 1 nM.

Consider `CC(Oc1cnc(-c2cccc(C(C)n3nc(-c4cccc(C#N)c4)ccc3=O)c2)nc1)C1CCN(C)CC1` [(R, S)-12a], for which the 50% inhibitory concentration (IC50) at c-Met kinase came to 1.56 ± 1 nM. In [3], the “Selectivity Index (LO2 vs MHCC-97H)” value amounted to 5750.0 and the half-maximal inhibitory concentration (IC50) was 11500 ± 1530 nM. Moreover, the wound closure entry in the assay on MHCC97H cells [4] is on record as “significantly suppressed wound closure”. The IC50 in the assay on MHCC97H cells [1] (Homo sapiens, MHCC97H, Table 2, read-out: IC50 on MHCC-97H) stood at 2 ± 2 nM. For the same molecule, the IC50 in the assay on MHCC97H cells [1] (setting [9]) stood at 2.1 nM. Further, in [5], the “Selectivity Index (HaCat vs MHCC-97H)” value stood at 953.5 and the IC50 was 1910 ± 250 nM. Besides, the “phosphorylation level of AKT protein” value in the assay with AKT (Western blot, dose-dependent) is listed as “decrease”. In addition, in the assay with AKT (setting [10]), the “fluorescence intensity of AKT (total AKT protein)” value is “did not change significantly” and the “fluorescence intensity of p-AKT” value was “decreased significantly”. Further, the “phosphorylation level of c-Met” value in the assay on c-Met (Western blot, dose-dependent) is reported as “decrease”. Also, in the assay with c-Met (setting [10]), the “fluorescence intensity of c-Met (total c-Met protein)” value was “did not change significantly” and the “fluorescence intensity of p-c-Met” value was “decreased significantly”. Besides, the tumor cell morphology entry in the assay with MHCC-97H tumor cells was “the cells shrank and floated and no longer adhered to the wall”. Also, the “proportions of early and late apoptosis cells” value with MHCC97H cells [6] (1 nM) is recorded as 8.9%. Besides, the “proportions of early and late apoptosis cells” value with MHCC97H cells [6] (5 nM) is 33.3%. The “nuclear morphology by Hoechst 33342 staining” value in the assay on MHCC97H cells [7] is “obvious nucleolar pyknosis, DNA fragmentation, and chromatin condensation”. In addition, in the assay on MHCC97H cells [8], the “proportion of cells in the G1 phase” value is listed as 70.99% and the “proportion of cells in the G2/M phases” value stood at 12.44%.

For the molecule `C[C@@H](c1cccc(-c2ncc(OCC3CCN(C)CC3)cn2)c1)n1nc(-c2cccc(C#N)c2)ccc1=O` [(S)-5b], the IC50 in the assay on MHCC97H cells [2] was 118 ± 56 nM.

Regarding `CC(Oc1cnc(-c2cccc(C(C)n3nc(-c4cccc(C#N)c4)ccc3=O)c2)nc1)C1CCN(C)CC1` [(S, S)-12a], the IC50 at c-Met kinase was 35.8 ± 6.8 nM; with MHCC97H cells [1] (setting [9]), 48.3 nM and 48 nM.

Consider `CC(Oc1cnc(-c2cccc(C(C)n3nc(-c4cccc(C#N)c4)ccc3=O)c2)nc1)C1CCN(C)CC1` [(S, R)-12a], for which the IC50 on c-Met kinase is 195 ± 73.2 nM; in the assay on MHCC97H cells [1] (setting [9]) it was 205 nM and 210 nM.

With “(R,R)-3-(1-(1-(3-(5-(1-((1-Methyl-1,2,3,6-tetrahydropyridin-4-yl)oxy)ethyl)pyrimidin-2-yl)phenyl)ethyl)-6-oxo-1,6-dihydropyridazin-3-yl)benzonitrile [(R, R)-12b]”, the IC50 in the assay with MHCC97H cells [1] (setting [9]) was 130 ± 38 nM.

In the case of `CC(Oc1cnc(-c2cccc(C(C)n3nc(-c4cccc(C#N)c4)ccc3=O)c2)nc1)C1CCN(C)CC1` [(R, R)-12a], the IC50 was 28.7 ± 5 nM at c-Met kinase and 30 ± 8 nM in the assay on MHCC97H cells [1] (setting [9]).

Take `CC(c1cccc(-c2ncc(OCC3CCN(C)CC3)cn2)c1)n1nc(-c2cccc(C#N)c2)ccc1=O` (racemic) [(±)-5b]: the IC50 in the assay on MHCC97H cells [2] was 35.3 ± 11 nM.

For the molecule `CN1CCC(COc2cnc(-c3cccc(Cn4nc(-c5cccc(C#N)c5)ccc4=O)c3)nc2)CC1` [Tepotinib, tepotinib, reference compound], the IC50 in assay [3] was found to be 8730 ± 841 nM; in the assay with MHCC97H cells [1] (Homo sapiens, MHCC97H, 48 h, read-out: MHCC97H Cell IC50) it was 13 ± 2 nM; in the assay with MHCC97H cells [1] (Homo sapiens, MHCC97H, read-out: IC50 on MHCC-97H), 13 ± 2 nM; in assay [5], 1950 ± 349 nM.

As to “(S,R)-3-(1-(1-(3-(5-(1-((1-Methyl-1,2,3,6-tetrahydropyridin-4-yl)oxy)ethyl)pyrimidin-2-yl)phenyl)ethyl)-6-oxo-1,6-dihydropyridazin-3-yl)benzonitrile [(S, R)-12b]”, the IC50 in the assay on MHCC97H cells [1] (setting [9]) was 616 ± 78.2 nM.
